The test deals with human recombinant GPR65 (Homo sapiens, UniProt Q8IYL9). Description: Human GPR65 cAMP HTRF antagonist assay. Type of test: cell-based. The gist of the method:
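1321N1 astrocytoma cells stably expressing hrGPR65, with IBMX and EDTA, were preincubated with compound 30 min at room temperature, then acid-activated at assay pH 7.2 (control pH 7.9) for 30 min. cAMP read by HTRF (665/620 nm ratio); IC50 from 4-parameter fit normalised to high/low controls.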
A general note: TR-FRET usually uses a lanthanide donor and a delayed reading to cut background.

[1] abbreviates: 1321N1-hrGPR65 cells, cAMP HTRF, assay pH 7.2, read-out: hGPR65 IC50 (Activity of selected compounds according to the invention).

Here are results for 12 compounds from patent US20240368173A1, “TRICYCLIC GPR65 MODULATORS” (PATHIOS THERAPEUTICS LIMITED, priority 2021, published 2024).

Molecules are shown by their SMILES. Read-outs that look alike come from different tables or passages of the source.

Chain of human recombinant GPR65 (Q8IYL9 whole entry): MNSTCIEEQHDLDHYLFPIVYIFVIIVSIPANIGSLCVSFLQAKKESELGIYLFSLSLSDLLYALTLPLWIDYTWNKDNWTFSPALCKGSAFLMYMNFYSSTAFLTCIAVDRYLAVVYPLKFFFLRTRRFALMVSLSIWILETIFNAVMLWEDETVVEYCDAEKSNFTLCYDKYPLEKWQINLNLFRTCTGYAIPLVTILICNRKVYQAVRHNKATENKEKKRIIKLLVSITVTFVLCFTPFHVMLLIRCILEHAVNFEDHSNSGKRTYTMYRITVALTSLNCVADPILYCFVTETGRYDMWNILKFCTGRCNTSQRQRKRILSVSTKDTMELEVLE

`O=C(Nc1cc(Cl)c(Cl)cc1F)N1[C@H]2CC[C@@H]1c1ccnc(OC(F)F)c1C2` [Compound 93, (5R,8S)-N-(4,5-dichloro-2-fluorophenyl)-1-(difluoromethoxy)-6,7,8,9-tetrahydro-5H-5,8-epiminocyclohepta[c]pyridine-10-carboxamide]: the concentration for half-maximal inhibition (IC50) under setting [1] fell in the range of 500 to 5000 nM. `O=C(Nc1cc(Cl)c(Cl)cc1F)N1[C@@H]2CC[C@H]1c1ncc(F)cc1C2` [Compound 95, (6R,9S)-N-(4,5-Dichloro-2-fluorophenyl)-3-fluoro-6,7,8,9-tetrahydro-5H-6,9-epiminocyclohepta[b]pyridine-10-carboxamide]: the IC50 under setting [1] is greater than 5000 nM. On to `COc1cnc(F)c2c1[C@H]1CC[C@@H](C2)N1C(=O)Nc1cc(Cl)c(Cl)cc1F` [Compound 96, (5R,8S)-N-(4,5-Dichloro-2-fluorophenyl)-1-fluoro-4-methoxy-6,7,8,9-tetrahydro-5H-5,8-epiminocyclohepta[c]pyridine-10-carboxamide], for which the IC50 was less than 500 nM. Same read-out and setting: the figure for `COc1cnc(F)c2c1[C@H]1CC[C@@H](C2)N1C(=O)Nc1cc(Cl)c(C(F)(F)F)cc1F` [Compound 97, (5R,8S)-N-(5-Chloro-2-fluoro-4-(trifluoromethyl)phenyl)-1-fluoro-4-methoxy-6,7,8,9-tetrahydro-5H-5,8-epiminocyclohepta[c]pyridine-10-carboxamide] is less than 500 nM; for `O=C(Nc1cc(Cl)c(Cl)cc1F)N1[C@H]2CC[C@@H]1c1ncc(F)cc1C2` [Compound 98, (6S,9R)-N-(4,5-Dichloro-2-fluorophenyl)-3-fluoro-6,7,8,9-tetrahydro-5H-6,9-epiminocyclohepta[b]pyridine-10-carboxamide] it is less than 500 nM.

`O=C(Nc1cc(Cl)c(Cl)cc1F)N1[C@H]2CC[C@@H]1c1c(F)ncc(Cl)c1C2` [Compound 99, (6S,9R)-4-Chloro-N-(4,5-dichloro-2-fluorophenyl)-1-fluoro-6,7,8,9-tetrahydro-5H-6,9-epiminocyclohepta[c]pyridine-10-carboxamide]: the IC50 under setting [1] fell in the range of 500 to 5000 nM. As for `O=C(Nc1cc(Cl)c(Cl)cc1F)N1[C@H]2CC[C@@H]1c1c(Cl)cnc(F)c1C2` [Compound 100, (5R,8S)-4-Chloro-N-(4,5-dichloro-2-fluorophenyl)-1-fluoro-6,7,8,9-tetrahydro-5H-5,8-epiminocyclohepta[c]pyridine-10-carboxamide], the concentration for half-maximal inhibition (IC50) is less than 500 nM. Take `O=C(Nc1cc(Cl)c(Cl)cc1F)N1[C@H]2CC[C@@H]1c1c(OCc3ccccc3)cnc(F)c1C2` [Compound 102, (5R,8S)-4-(benzyloxy)-N-(4,5-dichloro-2-fluorophenyl)-1-fluoro-6,7,8,9-tetrahydro-5H-5,8-epiminocyclohepta[c]pyridine-10-carboxamide]: the concentration for half-maximal inhibition (IC50) was less than 500 nM. Still for that read-out and setting: the figure for `C[C@@]12CC[C@@H](Cc3c1ccnc3F)N2C(=O)Nc1cc(Cl)c(Cl)cc1F` [Compound 103, (5R,8S)-N-(4,5-Dichloro-2-fluorophenyl)-1-fluoro-5-methyl-6,7,8,9-tetrahydro-5H-5,8-epiminocyclohepta[c]pyridine-10-carboxamide] is less than 500 nM. Still for that read-out and setting: the figure for `O=C(Nc1cc(Cl)c(Cl)cc1F)N1[C@H]2CC[C@@H]1c1c(O)cnc(F)c1C2` [Compound 104, (5R,8S)—N-(4,5-Dichloro-2-fluorophenyl)-1-fluoro-4-hydroxy-6,7,8,9-tetrahydro-5H-5,8-epiminocyclohepta[c]pyridine-10-carboxamide] is less than 500 nM; for `COCCCOc1cnc(F)c2c1[C@H]1CC[C@@H](C2)N1C(=O)Nc1cc(Cl)c(Cl)cc1F` [Compound 105, (5R,8S)—N-(4,5-Dichloro-2-fluorophenyl)-1-fluoro-4-(3-methoxypropoxy)-6,7,8,9-tetrahydro-5H-5,8-epiminocyclohepta[c]pyridine-10-carboxamide] it is less than 500 nM; for `C=C1c2ccnc(F)c2[C@H]2CC[C@@H]1N2C(=O)Nc1cc(Cl)c(Cl)cc1F` [Compound 106, (6S,9R)-N-(4,5-Dichloro-2-fluorophenyl)-1-fluoro-5-methylene-6,7,8,9-tetrahydro-5H-6,9-epiminocyclohepta[c]pyridine-10-carboxamide] it is 500 to 5000 nM.

As usually defined, the IC50 is the concentration that gives 50% inhibition.
